Assays:
[1] = target: Muscarinic acetylcholine receptor M3 (Homo sapiens, UniProt P20309); assay: Displacement of [3H]NMS from human M3 receptor expressed in CHO cells by microplate scintillation counting based radioligand binding assay; assay type: cell-based
[2] = target: T1, Muscarinic acetylcholine receptor M1 (Homo sapiens) (UniProt P11229); assay: Agonist activity at human M1 receptor expressed in HEK293T cells by BRET based Gq protein engagement assay relative carbachol; assay type: cell-based; settings: HEK-293T
T1 sequence (whole entry): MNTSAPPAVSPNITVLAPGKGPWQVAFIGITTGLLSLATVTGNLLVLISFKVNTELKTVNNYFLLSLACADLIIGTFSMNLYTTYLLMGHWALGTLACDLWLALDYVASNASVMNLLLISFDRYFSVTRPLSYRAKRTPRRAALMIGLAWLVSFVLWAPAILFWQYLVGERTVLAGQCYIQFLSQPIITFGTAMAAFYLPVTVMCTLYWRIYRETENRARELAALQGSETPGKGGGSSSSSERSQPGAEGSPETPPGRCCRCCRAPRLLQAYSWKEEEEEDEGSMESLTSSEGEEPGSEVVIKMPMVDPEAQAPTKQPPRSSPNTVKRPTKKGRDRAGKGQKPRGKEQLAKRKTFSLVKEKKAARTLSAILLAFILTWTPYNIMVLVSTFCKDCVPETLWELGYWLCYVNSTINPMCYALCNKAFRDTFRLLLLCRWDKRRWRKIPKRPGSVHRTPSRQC

[3] = target: T1, Muscarinic acetylcholine receptor M1 (Homo sapiens); assay: Agonist activity at human M1 receptor expressed in HEK293T cells by BRET based Gq protein activation assay relative to carbachol; assay type: cell-based; settings: HEK-293T
[4] = target: T1, Muscarinic acetylcholine receptor M1 (Homo sapiens); assay: Agonist activity at human M1 receptor expressed in HEK293T cells by BRET based beta-arrestin engagement assay relative to carbachol; assay type: cell-based; settings: HEK-293T
[5] = target: T2, Muscarinic acetylcholine receptor M4 (Homo sapiens) (UniProt P08173); assay: Agonist activity at human M4 receptor expressed in HEK293T cells by BRET based beta-arrestin engagement assay relative to carbachol; assay type: cell-based; settings: HEK-293T
T2 sequence (whole entry): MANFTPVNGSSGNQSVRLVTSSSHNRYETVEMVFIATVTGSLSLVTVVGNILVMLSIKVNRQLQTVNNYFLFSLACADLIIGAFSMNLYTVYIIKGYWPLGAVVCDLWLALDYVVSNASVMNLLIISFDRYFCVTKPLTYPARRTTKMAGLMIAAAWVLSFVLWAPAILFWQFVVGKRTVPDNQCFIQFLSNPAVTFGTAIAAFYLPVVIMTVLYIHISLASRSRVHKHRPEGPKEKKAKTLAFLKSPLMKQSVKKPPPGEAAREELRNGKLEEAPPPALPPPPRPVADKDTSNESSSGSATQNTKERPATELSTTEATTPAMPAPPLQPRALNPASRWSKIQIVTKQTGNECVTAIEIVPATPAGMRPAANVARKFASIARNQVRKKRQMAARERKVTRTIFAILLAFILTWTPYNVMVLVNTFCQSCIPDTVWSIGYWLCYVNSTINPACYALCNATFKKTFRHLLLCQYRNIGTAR

[6] = target: T2, Muscarinic acetylcholine receptor M4 (Homo sapiens); assay: Agonist activity at human M4 receptor expressed in HEK293T cells by BRET based Gi protein activation assay relative to carbachol; settings: HEK-293T
[7] = target: T3, Muscarinic acetylcholine receptor M1 (Homo sapiens, UniProt P11229); assay: Displacement of [3H]NMS from human M1 receptor expressed in CHO cells by microplate scintillation counting based radioligand binding assay; assay type: cell-based
T3 sequence (P11229 whole entry): T1 sequence (whole entry)

[8] = target: T4, Muscarinic acetylcholine receptor M2 (Homo sapiens, UniProt P08172); assay: Displacement of [3H]NMS from human M2 receptor expressed in CHO cells by microplate scintillation counting based radioligand binding assay; assay type: cell-based
T4 sequence (P08172 whole entry): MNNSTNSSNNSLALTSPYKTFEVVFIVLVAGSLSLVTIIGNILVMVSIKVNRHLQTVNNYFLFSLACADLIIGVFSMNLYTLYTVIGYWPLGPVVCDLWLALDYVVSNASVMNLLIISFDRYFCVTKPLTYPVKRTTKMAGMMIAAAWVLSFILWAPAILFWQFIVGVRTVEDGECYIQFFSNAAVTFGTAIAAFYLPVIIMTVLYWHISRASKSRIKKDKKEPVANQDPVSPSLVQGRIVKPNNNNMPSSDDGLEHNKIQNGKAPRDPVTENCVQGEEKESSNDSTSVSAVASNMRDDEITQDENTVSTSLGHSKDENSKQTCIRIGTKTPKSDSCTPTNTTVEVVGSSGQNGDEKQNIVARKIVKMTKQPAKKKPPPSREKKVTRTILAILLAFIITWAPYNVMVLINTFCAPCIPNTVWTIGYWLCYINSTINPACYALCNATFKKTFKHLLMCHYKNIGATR

[9] = target: T5, Muscarinic acetylcholine receptor M4 (Homo sapiens, UniProt P08173); assay: Displacement of [3H]NMS from human M4 receptor expressed in CHO cells by microplate scintillation counting based radioligand binding assay; assay type: cell-based
T5 sequence (P08173 whole entry): T2 sequence (whole entry)

[10] = target: T6, Muscarinic acetylcholine receptor M5 (Homo sapiens, UniProt P08912); assay: Displacement of [3H]NMS from human M5 receptor expressed in CHO cells by microplate scintillation counting based radioligand binding assay; assay type: cell-based
T6 sequence (P08912 whole entry): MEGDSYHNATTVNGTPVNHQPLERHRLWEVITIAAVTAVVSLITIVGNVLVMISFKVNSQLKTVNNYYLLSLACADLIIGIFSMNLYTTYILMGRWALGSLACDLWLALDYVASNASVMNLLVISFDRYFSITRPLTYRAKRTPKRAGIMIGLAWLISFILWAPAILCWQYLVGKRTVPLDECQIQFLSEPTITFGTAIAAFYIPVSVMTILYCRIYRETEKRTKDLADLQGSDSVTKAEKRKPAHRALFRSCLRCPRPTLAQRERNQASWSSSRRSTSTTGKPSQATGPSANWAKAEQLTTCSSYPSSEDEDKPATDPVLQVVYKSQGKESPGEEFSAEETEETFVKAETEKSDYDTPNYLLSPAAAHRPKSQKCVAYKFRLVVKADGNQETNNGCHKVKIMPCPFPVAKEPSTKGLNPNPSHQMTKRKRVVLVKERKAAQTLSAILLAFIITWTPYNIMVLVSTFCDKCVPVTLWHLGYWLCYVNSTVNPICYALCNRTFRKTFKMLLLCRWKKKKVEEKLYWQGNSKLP

[11] = target: T3, Muscarinic acetylcholine receptor M1; assay type: cell-based, HEK-293T
[12] = target: T3, Muscarinic acetylcholine receptor M1; assay: Agonist activity at human M1 receptor expressed in HEK293T cells by BRET based Gq protein activation assay; assay type: cell-based, HEK-293T
[13] = target: T3, Muscarinic acetylcholine receptor M1; assay type: cell-based, HEK-293T; remark: listed apart in the source
[14] = target: T5, Muscarinic acetylcholine receptor M4; assay: Agonist activity at human M4 receptor expressed in HEK293T cells by BRET based Gq protein engagement assay
[15] = target: T2, Muscarinic acetylcholine receptor M4 (Homo sapiens); assay: Agonist activity at human M4 receptor expressed in HEK293T cells by BRET based Gq protein engagement assay relative to carbachol; assay type: cell-based; settings: HEK-293T
[16] = target: T5, Muscarinic acetylcholine receptor M4; assay: Antagonist activity at human M4 receptor expressed in HEK293T cells assessed as inhibition of carbachol-induced response by BRET based Gq protein engagement assay; assay type: cell-based, HEK-293T
[17] = target: T2, Muscarinic acetylcholine receptor M4 (Homo sapiens); assay: Antagonist activity at human M4 receptor expressed in HEK293T cells assessed as inhibition of carbachol-induced response by BRET based Gq protein engagement assay relative to untreated control; assay type: cell-based; settings: HEK-293T
[18] = target: T5, Muscarinic acetylcholine receptor M4; assay: Agonist activity at human M4 receptor expressed in HEK293T cells by BRET based Gq protein activation assay
[19] = target: T5, Muscarinic acetylcholine receptor M4; assay: Antagonist activity at human M4 receptor expressed in HEK293T cells assessed as inhibition of carbachol-induced response by beta-arrestin engagement assay; assay type: cell-based, HEK-293T
[20] = target: T2, Muscarinic acetylcholine receptor M4 (Homo sapiens); assay: Antagonist activity at human M4 receptor expressed in HEK293T cells assessed as inhibition of carbachol-induced response by beta-arrestin engagement assay relative to untreated control; assay type: cell-based; settings: HEK-293T
[21] = target: T3, Muscarinic acetylcholine receptor M1
[22] = target: T5, Muscarinic acetylcholine receptor M4
[23] = target: T2, Muscarinic acetylcholine receptor M4 (Homo sapiens); assay: Antagonist activity at human M4 receptor expressed in HEK293T cells assessed as inhibition of carbachol-induced response by BRET based Gi protein activation assay relative to untreated control; settings: HEK-293T
[24] = target: T3, Muscarinic acetylcholine receptor M1; assay: Agonist activity at human M1 receptor expressed in HEK293T cells by BRET based Gq protein engagement assay
[25] = target: T3, Muscarinic acetylcholine receptor M1; assay: Agonist activity at human M1 receptor expressed in HEK293T cells by BRET based beta-arrestin engagement assay

Muscarinic acetylcholine receptor M3, sequence (P20309 whole entry): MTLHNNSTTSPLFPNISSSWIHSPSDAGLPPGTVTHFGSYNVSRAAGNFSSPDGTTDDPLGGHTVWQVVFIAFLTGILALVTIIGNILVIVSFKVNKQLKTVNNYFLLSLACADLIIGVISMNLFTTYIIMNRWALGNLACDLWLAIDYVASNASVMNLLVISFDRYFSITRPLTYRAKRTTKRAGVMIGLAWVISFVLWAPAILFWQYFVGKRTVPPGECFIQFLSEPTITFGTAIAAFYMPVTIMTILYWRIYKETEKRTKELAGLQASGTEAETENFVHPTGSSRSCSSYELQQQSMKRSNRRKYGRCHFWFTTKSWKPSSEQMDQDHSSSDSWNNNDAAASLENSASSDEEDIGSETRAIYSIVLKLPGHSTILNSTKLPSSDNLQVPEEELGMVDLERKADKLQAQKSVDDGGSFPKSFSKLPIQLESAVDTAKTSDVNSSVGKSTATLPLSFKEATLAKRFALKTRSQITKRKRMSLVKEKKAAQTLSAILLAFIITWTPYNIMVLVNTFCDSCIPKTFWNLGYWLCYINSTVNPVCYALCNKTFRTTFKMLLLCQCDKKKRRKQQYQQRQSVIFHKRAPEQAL

SMILES	Ki [1]	Emax [2]	Emax [3]	Emax [4]	Emax [6]	Ki [7]	Ki [8]	Ki [9]	Ki [10]	IC50 [11]	EC50 [12]	IC50 [13]	EC50 [14]	Emax [15]	IC50 [16]	Imax [17]	EC50 [18]	IC50 [19]	Imax [20]	IC50 [21]	further results
CCCCCCOc1nsnc1C1=CCCN(C)C1 [XANOMELINE]	7.76 nM	54%	77%	95%	94%	–	–	–	–	–	–	–	–	–	–	–	–	–	–	–	Emax [5]: 42%
CN1CCC=C(c2nsnc2OCCCCCC2CCN(CCCN3C(=O)CCc4ccccc43)CC2)C1	4.68 nM	< 0%	13%	–	27%	6.76 nM	11 nM	7.94 nM	5.62 nM	5370 nM	20.4 nM	646 nM	7080 nM	< 0%	447 nM	< 100%	30.9 nM	355 nM	< 100%	4270 nM	IC50 [22]: 631 nM; Imax [23]: < 100%
CN1CCC=C(c2nsnc2OCCCCCCCC2CCN(CCCN3C(=O)CCc4ccccc43)CC2)C1	0.794 nM	42%	25%	42%	40%	0.912 nM	1.38 nM	0.891 nM	2.29 nM	380 nM	41.7 nM	741 nM	18.6 nM	18%	407 nM	92%	35.5 nM	145 nM	14%	21.9 nM	EC50 [24]: 166 nM; EC50 [25]: 174 nM; IC50 [22]: 1860 nM; Imax [23]: 60%

Source: ChEMBL document CHEMBL3351363 (J Med Chem, 2014)
